We go through 25 molecules from ChEMBL document CHEMBL4665662, “Designed P-glycoprotein inhibitors with triazol-tetrahydroisoquinoline-core increase doxorubicin-induced mortality in multidrug resistant K562/A02 cells” (Bioorg Med Chem, 2019).

Active and inactive are the calls of the source. The rule behind the calls is not given here. Bounds are passed on as bounds.

Assay [1] relates to K562/A02. Nature of the assay: Cytotoxicity against human K562/A02 cells overexpressing P-gp assessed as cell growth inhibition after 48 hrs by MTT assay. Format: cell-based. As to conditions: K562/A02, 48 h. (In general: Tetrazolium dyes change colour on reduction, which living cells bring about.)
The subject of assay [2] is K562/A02. Nature of the assay: Reversal of P-gp mediated multidrug resistance in human K562/A02 cells overexpressing P-gp assessed as fold reduction in doxorubicin IC50 at 5 uM after 48 hrs by MTT assay relative to control. The format is cell-based.
A further assay deals with K562. Nature of the assay: Cytotoxicity against human K562 cells assessed as cell growth inhibition after 48 hrs by MTT assay. The format is cell-based. To be noted: K562, 48 h.
Assay [3] concerns K562/A02. Nature of the assay: Reversal of P-gp mediated multidrug resistance in human K562/A02 cells overexpressing P-gp assessed as fold reduction in doxorubicin IC50 at 5 uM preincubated for 24 hrs followed by compound washout and 24 hrs later incubated with doxorubicin and measured after 48 hrs by MTT assay relative to control. Format: cell-based.
In assay [4] the test system is K562/A02. Nature of the assay: Reversal of P-gp mediated multidrug resistance in human K562/A02 cells overexpressing P-gp assessed as fold reduction in doxorubicin IC50 at 5 uM preincubated for 24 hrs followed by compound washout and 6 hrs later incubated with doxorubicin and measured after 48 hrs by MTT assay relative to control. Format: cell-based.
Assay [5] deals with K562/A02. Nature of the assay: Reversal of P-gp mediated multidrug resistance in human K562/A02 cells overexpressing P-gp assessed as fold reduction in doxorubicin IC50 at 5 uM preincubated for 24 hrs followed by compound washout and 12 hrs later incubated with doxorubicin and measured after 48 hrs by MTT assay relative to control. The format is cell-based.
Assay [6] relates to K562/A02. Nature of the assay: Inhibition of P-gp overexpressed in human K562/A02 cells assessed as increase in doxorubicin accumulation preincubated for 60 mins followed by doxorubicin addition and measured after 90 mins by fluorescence spectrophotometry analysis. The format is cell-based. To be noted: dose microM 0.5-5, time 60.0 min.
Assay [7] has as its system K562/A02. Nature of the assay: Reversal of P-gp mediated multidrug resistance in human K562/A02 cells overexpressing P-gp assessed as fold reduction in doxorubicin IC50 at 5 uM preincubated for 24 hrs followed by compound washout and later incubated with doxorubicin and measured after 48 hrs by MTT assay relative to control. The format is cell-based.
Assay [8] has as its system K562/A02. Nature of the assay: Effect on P-gp expression in human K562/A02 cells overexpressing P-gp at 0.5 to 5 uM after 72 hrs by Western blot analysis. Format: functional, cell-based. To be noted: dose microM 0.5-5, time 72.0 hrs. Background: In western blotting, separated proteins are transferred to a membrane and probed.
Assay [9] deals with K562/A02. Nature of the assay: Reversal of P-gp mediated multidrug resistance in human K562/A02 cells overexpressing P-gp assessed as inhibition of Rh123 efflux by measuring remaining mean fluorescence intensity at 2 uM pretreated with Rh123 for 60 mins followed by incubation with compound for 90 mins by FACSCalibur flow cytometry analysis. The format is cell-based. For orientation: Flow cytometry measures light scatter and fluorescence of single cells or particles in a stream.

Assay [10] in a line: Reversal of P-gp mediated multidrug resistance in human K562/A02 cells overexpressing P-gp assessed as potentiation of doxorubicin-induced mortality by measuring reduction in doxorubicin IC50 measured after 48 hrs by MTT assay. Format: cell-based. To be noted: K562/A02, 48 h.
Assay [11] deals with K562/A02. Nature of the assay: Reversal of P-gp mediated multidrug resistance in human K562/A02 cells overexpressing P-gp assessed as time duration of action for reversal of doxorubicin-induced cytotoxicity at 5 uM preincubated for 24 hrs followed by compound washout and later incubated with doxorubicin and measured after 48 hrs by MTT assay. Format: cell-based.
The subject of assay [12] is K562/A02. Nature of the assay: Inhibition of P-gp overexpressed in human K562/A02 cells assessed as increase doxorubicin accumulation at 5 uM preincubated for 60 mins followed by doxorubicin addition and measured after 90 mins by fluorescence spectrophotometry analysis. The format is cell-based.
For assay [13], the system named is K562/A02. Nature of the assay: Reversal of P-gp mediated multidrug resistance in human K562/A02 cells overexpressing P-gp assessed as potentiation of doxorubicin-induced mortality by measuring reduction in doxorubicin IC50 at 10 nM measured after 48 hrs by MTT assay. The format is cell-based.
In assay [14] the test system is K562/A02. Nature of the assay: Inhibition of P-gp overexpressed in human K562/A02 cells assessed as increase in doxorubicin accumulation at 0.1 uM preincubated for 60 mins followed by doxorubicin addition and measured after 90 mins by fluorescence spectrophotometry analysis. The format is cell-based.

By IC50 is commonly meant the concentration at which inhibition is half-maximal. In general, EC50 refers to the concentration that produces a half-maximal response.

Turning to `COc1cc2c(cc1OC)CN(CCc1ccc(-n3cc(CNc4ccccc4NC(=O)c4ccsc4C)nn3)cc1)CC2`, the figures for the IC50 with K562/A02 [1] and in the assay on K562 (read-out: IC50) were 59.6 µM and more than 100 µM, respectively. For the same molecule, the Ratio IC50 in the assay on K562/A02 [2] was found to be 10.9.

For `COc1cc2c(cc1OC)CN(CCn1cc(CNc3ccccc3NC(=O)c3cccnc3Cl)nn1)CC2`, the IC50 with K562/A02 [1] was more than 100 µM. Besides, in the assay on K562/A02 [2], the Ratio IC50 is 1.28.

For `COc1cc2c(cc1OC)CN(CCc1ccc(NC(=O)c3cc(OC)c(OC)cc3NC(=O)c3cnc4ccccc4c3)cc1)CC2`, the IC50 with K562/A02 [1] was found to be 30.1 µM; in the assay with K562 (read-out: IC50) it was 18.4 µM. In addition, the Ratio IC50 in the assay on K562/A02 [3] came out at 2.4; with K562/A02 [4], 10.2; with K562/A02 [2], 42.3; in the assay with K562/A02 [5], 4.12; in the assay on K562/A02 [7], 19.2. Besides, the inhibition entry with K562/A02 [6] is “Dose-dependent effect”.

`COc1cccc2c1C(=O)c1c(O)c3c(c(O)c1C2=O)C[C@@](O)(C(=O)CO)C[C@@H]3O[C@H]1C[C@H](N)[C@H](O)[C@H](C)O1` [DOXORUBICIN]: the IC50 with K562/A02 [1] came out at 55.5 µM.

Regarding `COc1cc2c(cc1OC)CN(CCn1cc(CNc3ccccc3NC(=O)c3ccc(C)s3)nn1)CC2`, the IC50 in the assay with K562/A02 [1] was more than 100 µM. For the same molecule, the Ratio IC50 in the assay with K562/A02 [2] was found to be 2.86.

As to `COc1cc2c(cc1OC)CN(CCc1ccc(-n3cc(CNc4ccccc4NC(=O)c4ccsc4)nn3)cc1)CC2`, the IC50 with K562/A02 [1] is 65.9 µM; in the assay with K562 (read-out: IC50), more than 100 µM. The Ratio IC50 in the assay on K562/A02 [2] was determined as 22.8.

Turning to `COc1cc2c(cc1OC)CN(CCn1cc(CNc3ccccc3NC(=O)c3ccncc3)nn1)CC2`, in the assay with K562/A02 [1], the IC50 is more than 100 µM. Further, the Ratio IC50 in the assay with K562/A02 [2] worked out at 3.74.

Take `COc1cc2c(cc1OC)CN(CCn1cc(CNc3ccccc3NC(=O)c3cccs3)nn1)CC2`: the IC50 in the assay on K562/A02 [1] is more than 100 µM. Also, the Ratio IC50 with K562/A02 [2] came to 2.03.

Regarding `COc1cc2c(cc1OC)CN(CCc1ccc(-n3cc(CNc4ccccc4NC(=O)c4cccs4)nn3)cc1)CC2`, the IC50 is 60.7 µM in the assay with K562/A02 [1] and more than 100 µM in the assay with K562 (read-out: IC50). In addition, the Ratio IC50 with K562/A02 [2] came to 21.2.

As to `COc1cc2c(cc1OC)CN(CCc1ccc(-n3cc(CNc4ccccc4NC(=O)c4cc5ccccc5[nH]4)nn3)cc1)CC2`, the IC50 with K562/A02 [1] and with K562 (read-out: IC50) was more than 100 µM in each case. For the same molecule, the Ratio IC50 in the assay with K562/A02 [2] amounted to 6.57.

As for `COc1cc2c(cc1OC)CN(CCn1cc(CNc3ccccc3NC(=O)c3ccccn3)nn1)CC2`, the IC50 with K562/A02 [1] was more than 100 µM. In the assay with K562/A02 [2], the Ratio IC50 stood at 3.88.

`COc1cc2c(cc1OC)CN(CCc1ccc(-n3cc(CNc4ccccc4NC(=O)c4ccc5ccccc5n4)nn3)cc1)CC2`: the results for the IC50 in the assay with K562/A02 [1] and in the assay on K562 (read-out: IC50) were 58.1 µM and more than 100 µM, respectively. For the same molecule, the Ratio IC50 in the assay on K562/A02 [2] was found to be 13.3.

As to `COc1cc2c(cc1OC)CN(CCn1cc(CNc3ccccc3NC(=O)c3sccc3C)nn1)CC2`, in the assay with K562/A02 [1], the IC50 was more than 100 µM. Besides, the Ratio IC50 in the assay with K562/A02 [2] came to 3.09.

Regarding `COc1cc2c(cc1OC)CN(CCc1ccc(-n3cc(CNc4ccccc4NC(=O)c4ccncc4)nn3)cc1)CC2`, the IC50 in the assay with K562/A02 [1] and in the assay on K562 (read-out: IC50) was more than 100 µM throughout. For the same molecule, the Ratio IC50 in the assay with K562/A02 [2] is 1.09.

For the molecule `COc1cc2c(cc1OC)CN(CCc1ccc(-n3cc(CNc4ccccc4NC(=O)c4ccc(Cl)s4)nn3)cc1)CC2`, in the assay on K562/A02 [8], the result was inactive. The Activity in the assay with K562/A02 [9] is more than 50%. Besides, the IC50 with K562/A02 [1] was 63.2 µM; in the assay with K562 (read-out: IC50), more than 100 µM. In addition, the EC50 in assay [10] amounted to 0.0468 µM. Also, the Ratio IC50 with K562/A02 [3] was 1.27; in the assay with K562/A02 [4] it was 7.08; in the assay on K562/A02 [2] it was 42; with K562/A02 [5] it was 3.29; with K562/A02 [7], 17.1. Also, in the assay with K562/A02 [11], the TIME was more than 24 h. The inhibition entry in the assay with K562/A02 [6] is “Dose-dependent effect”. Further, the inhibition entry with K562/A02 [12], in the assay with K562/A02 [13] and with K562/A02 [14] was “Active” in each case.

For `COc1cc2c(cc1OC)CN(CCn1cc(CNc3ccccc3NC(=O)c3ccc(Cl)s3)nn1)CC2`, the IC50 in the assay on K562/A02 [1] is more than 100 µM. The Ratio IC50 in the assay on K562/A02 [2] stood at 3.38.

On to `COc1cc2c(cc1OC)CN(CCc1ccc(-n3cc(CNc4ccccc4NC(=O)c4cccnc4Cl)nn3)cc1)CC2`, for which the IC50 in the assay with K562/A02 [1] was determined as 47 µM; with K562 (read-out: IC50) it was 42.7 µM. Besides, in the assay on K562/A02 [2], the Ratio IC50 amounted to 2.79.

Take `COc1cc2c(cc1OC)CN(CCc1ccc(-n3cc(CNc4ccccc4NC(=O)c4ccccn4)nn3)cc1)CC2`: the IC50 with K562/A02 [1] was found to be 52.1 µM; in the assay with K562 (read-out: IC50) it was 45.1 µM. Also, the Ratio IC50 with K562/A02 [2] came out at 11.8.

In the case of `COc1cc2c(cc1OC)CN(CCn1cc(CNc3ccccc3NC(=O)c3cc4ccccc4[nH]3)nn1)CC2`, the IC50 in the assay on K562/A02 [1] was more than 100 µM. In addition, in the assay on K562/A02 [2], the Ratio IC50 was 4.16.

For `COc1cc2c(cc1OC)CN(CCc1ccc(-n3cc(CNc4ccccc4NC(=O)c4ccco4)nn3)cc1)CC2`, the values for the IC50 in the assay with K562/A02 [1] and with K562 (read-out: IC50) were 58.4 µM and 25.8 µM, respectively. Besides, in the assay with K562/A02 [2], the Ratio IC50 stood at 11.2.

With `COc1cc2c(cc1OC)CN(CCc1ccc(-n3cc(CNc4ccccc4NC(=O)c4ccc(C)s4)nn3)cc1)CC2`, the IC50 in the assay on K562/A02 [1] and with K562 (read-out: IC50) was more than 100 µM in each case. Moreover, in the assay with K562/A02 [2], the Ratio IC50 came out at 21.8.

`COc1cc2c(cc1OC)CN(CCn1cc(CNc3ccccc3NC(=O)c3ccsc3)nn1)CC2`: the half-maximal inhibitory concentration (IC50) in the assay with K562/A02 [1] was more than 100 µM. For the same molecule, the Ratio IC50 in the assay on K562/A02 [2] turned out to be 2.27.

Turning to `COc1ccc(CCN(C)CCCC(C#N)(c2ccc(OC)c(OC)c2)C(C)C)cc1OC` (stereo unspecified), the IC50 with K562/A02 [1] came to 59.2 µM; with K562, 68.3 µM. In addition, the inhibition entry in the assay on K562/A02 [6] was “Dose-dependent effect”. In addition, in the assay on K562/A02 [12], the inhibition result was “Active”.

For the molecule `COc1cc2c(cc1OC)CN(CCn1cc(CNc3ccccc3NC(=O)c3ccco3)nn1)CC2`, the IC50 in the assay on K562/A02 [1] was more than 100 µM. In addition, the Ratio IC50 in the assay with K562/A02 [2] came out at 1.28.

As to `COc1cc2c(cc1OC)CN(CCc1ccc(-n3cc(CNc4ccccc4NC(=O)c4cnc5ccccc5c4)nn3)cc1)CC2`, the IC50 in the assay on K562/A02 [1] and in the assay on K562 (read-out: IC50) was more than 100 µM in each case. In the assay on K562/A02 [2], the Ratio IC50 worked out at 3.82.
